Experimental data from patent US20100099561A1, “HETEROBICYCLIC ALKYLTHIO-BRIDGED ISOXAZOLINES” (E.I. DU PONT DE NEMOURS AND COMPANY, priority 2008, published 2010).

How the values were obtained:
Assay type in all cases: in vivo
[1] = test system: giant foxtail (Setaria faberi); experiment: Test A preemergence, giant foxtail; settings: 0 to 100 scale (0 no effect, 100 complete control)
Method in brief: (§1)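 Visual injury scored 0 (no effect) to 100 (complete control) against untreated plants roughly ten days after greenhouse treatment. Postemergence sprays hit one- to two-leaf plants 2–10 cm high; preemergence was a directed spray onto loam–sand soil, both using surfactant-containing solvent formulations.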

[2] = test system: bermudagrass (Cynodon dactylon); experiment: Test B preemergence, bermudagrass; settings: scale 0 to 100
Excerpt: Seeds of plant species selected from blackgrass (Alopecurus myosuroides), downy bromegrass (Bromus tectorum), green foxtail (Setaria viridis), Italian ryegrass (Lolium multiflorum), wheat (Triticum aestivum), wild oat (Avena fatua), catchweed bedstraw (Galium aparine), bermudagrass (Cynodon dactylon), Surinam grass (Brachiaria decumbens), cocklebur (Xanthium strumarium), corn (Zea mays), large crabgrass (Digitaria sanguinalis), woolly cupgrass (Eriochloa villosa), giant foxtail (Setaria faberii), goosegrass (Eleusine indica), johnsongrass (Sorghum halepense), kochia (Kochia scoparia), lambsquarters (Chenopodium album), morningglory (Ipomoea coccinea), nightshade (eastern black nightshade, Solanum ptycanthum), yellow nutsedge (Cyperus esculentus), pigweed (Amaranthus retroflexus), ragweed (common ragweed, Ambrosia elatior), soybean (Glycine max), sunflower (common oilseed sunflower, Helianthus annuus), Russian thistle (Salsola kali), and velvetleaf (Abutilon theophrasti) were planted into a blend of loam soil and sand and treated preemergence with test compounds formulated in a non-phytotoxic solvent mixture which included a surfactant. Treated plants and controls were maintained in a greenhouse for 13 to 15 days, after which time all species were compared to controls and visually evaluated. Plant response ratings, summarized in Table B, are based on a scale of 0 to 100 where 0 is no effect and 100 is complete control. A dash (-) response means no test result.

[3] = test system: pigweed (Amaranthus retroflexus); experiment: Test A postemergence, pigweed; settings: 0 to 100 scale (0 no effect, 100 complete control)
Method in brief: as §1

[4] = test system: large crabgrass (Digitaria sanguinalis); experiment: Test B preemergence, large crabgrass; settings: scale 0 to 100
Method in brief: (§2)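 Planting into loam soil blended with sand preceded preemergence treatment. After 13 to 15 days under greenhouse conditions, response was judged by eye against controls, 0 meaning no effect and 100 complete control.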

[5] = test system: sunflower (common oilseed sunflower, Helianthus annuus); experiment: Test B preemergence, sunflower; settings: Preemergence, scale 0 to 100
Method in brief: as §2

[6] = test system: ragweed (common ragweed, Ambrosia elatior); experiment: Test B preemergence, ragweed; settings: scale 0 to 100
Method in brief: as §2

[7] = test system: velvetleaf (Abutilon theophrasti); experiment: Test B preemergence, velvetleaf; settings: Preemergence, scale 0 to 100
Method in brief: as §2

[8] = test system: woolly cupgrass (Eriochloa villosa); experiment: Test B preemergence, woolly cupgrass; settings: scale 0 to 100
Method in brief: as §2

[9] = test system: blackgrass (Alopecurus myosuroides); experiment: Test B preemergence, blackgrass; settings: scale 0 to 100
Method in brief: as §2

[10] = test system: pigweed (Amaranthus retroflexus); experiment: Test B preemergence, pigweed; settings: scale 0 to 100
Method in brief: as §2

[11] = test system: downy bromegrass (Bromus tectorum); experiment: Test B preemergence, downy bromegrass; settings: scale 0 to 100
Method in brief: as §2

[12] = test system: wild oat (Avena fatua); experiment: Test B preemergence, wild oat; settings: scale 0 to 100
Method in brief: as §2

[13] = test system: wheat (Triticum aestivum); experiment: Test B preemergence, wheat; settings: Preemergence, scale 0 to 100
Method in brief: as §2

[14] = test system: green foxtail (Setaria viridis); experiment: Test B preemergence, green foxtail; settings: scale 0 to 100
Method in brief: as §2

[15] = test system: corn (Zea mays); experiment: Test A postemergence, corn; settings: 0 to 100 scale (0 no effect, 100 complete control)
Method in brief: as §1

[16] = test system: goosegrass (Eleusine indica); experiment: Test B preemergence, goosegrass; settings: scale 0 to 100
Method in brief: as §2

[17] = test system: giant foxtail (Setaria faberi); experiment: Test A postemergence, giant foxtail; settings: 0 to 100 scale (0 no effect, 100 complete control)
Method in brief: as §1

[18] = test system: catchweed bedstraw (Galium aparine); experiment: Test B preemergence, catchweed bedstraw; settings: scale 0 to 100
Method in brief: as §2

[19] = test system: morningglory (Ipomoea spp.); experiment: Test A postemergence, morningglory; settings: 0 to 100 scale (0 no effect, 100 complete control)
Method in brief: as §1

[20] = test system: cocklebur (Xanthium strumarium); experiment: Test B preemergence, cocklebur; settings: scale 0 to 100
Method in brief: as §2

[21] = test system: yellow nutsedge (Cyperus esculentus); experiment: Test B preemergence, yellow nutsedge; settings: scale 0 to 100
Method in brief: as §2

CC1(C)CC(S(=O)(=O)Cc2c(C(F)(F)F)nc3n(c2=O)CCCC3)=NO1 [Compound 8, 3-[[(4,5-dihydro-5,5-dimethyl-3-isoxazolyl)sulfonyl]methyl]-6,7,8,9-tetrahydro-2-(trifluoromethyl)-4H-pyrido[1,2-α]pyrimidin-4-one]
Plant response rating, Foxtail, Giant ([1]; 125 g ai/ha): 100 | Plant response rating, Foxtail, Giant ([1]; 500 g ai/ha): 100 | Plant response rating, Bermudagrass ([2]; 16 g ai/ha): 100 | Plant response rating, Bermudagrass ([2]; 31 g ai/ha): 100 | Plant response rating, Bermudagrass ([2]; 62 g ai/ha): 100 | Plant response rating, Bermudagrass ([2]; 125 g ai/ha): 100 | Plant response rating, Pigweed ([3]; 125 g ai/ha): 10 | Plant response rating, Pigweed ([3]; 500 g ai/ha): 60 | Plant response rating, Crabgrass, Large ([4]; 16 g ai/ha): 95 | Plant response rating, Crabgrass, Large ([4]; 31 g ai/ha): 95 | Plant response rating, Crabgrass, Large ([4]; 62 g ai/ha): 100 | Plant response rating, Crabgrass, Large ([4]; 125 g ai/ha): 100 | Plant response rating, Sunflower ([5]; 16 g ai/ha): 0 | Plant response rating, Sunflower ([5]; 31 g ai/ha): 15 | Plant response rating, Sunflower ([5]; 62 g ai/ha): 40 | Plant response rating, Sunflower ([5]; 125 g ai/ha): 45 | Plant response rating, Ragweed ([6]; 16 g ai/ha): 0 | Plant response rating, Ragweed ([6]; 31 g ai/ha): 0 | Plant response rating, Ragweed ([6]; 62 g ai/ha): 25 | Plant response rating, Ragweed ([6]; 125 g ai/ha): 60 | Plant response rating, Velvetleaf ([7]; 16 g ai/ha): 0 | Plant response rating, Velvetleaf ([7]; 31 g ai/ha): 0 | Plant response rating, Velvetleaf ([7]; 62 g ai/ha): 35 | Plant response rating, Velvetleaf ([7]; 125 g ai/ha): 45 | Plant response rating, Cupgrass, Woolly ([8]; 16 g ai/ha): 85 | Plant response rating, Cupgrass, Woolly ([8]; 31 g ai/ha): 95 | Plant response rating, Cupgrass, Woolly ([8]; 62 g ai/ha): 95 | Plant response rating, Cupgrass, Woolly ([8]; 125 g ai/ha): 100 | Plant response rating, Blackgrass ([9]; 16 g ai/ha): 0 | Plant response rating, Blackgrass ([9]; 31 g ai/ha): 90 | Plant response rating, Blackgrass ([9]; 62 g ai/ha): 90 | Plant response rating, Blackgrass ([9]; 125 g ai/ha): 100 | Plant response rating, Pigweed ([10]; 16 g ai/ha): 0 | Plant response rating, Pigweed ([10]; 31 g ai/ha): 20 | Plant response rating, Pigweed ([10]; 62 g ai/ha): 95 | Plant response rating, Pigweed ([10]; 125 g ai/ha): 100 | Plant response rating, Bromegrass, Downy ([11]; 16 g ai/ha): 0 | Plant response rating, Bromegrass, Downy ([11]; 31 g ai/ha): 0 | Plant response rating, Bromegrass, Downy ([11]; 62 g ai/ha): 20 | Plant response rating, Bromegrass, Downy ([11]; 125 g ai/ha): 40 | Plant response rating, Oat, Wild ([12]; 16 g ai/ha): 0 | Plant response rating, Oat, Wild ([12]; 31 g ai/ha): 0 | Plant response rating, Oat, Wild ([12]; 62 g ai/ha): 35 | Plant response rating, Oat, Wild ([12]; 125 g ai/ha): 90 | Plant response rating, Wheat ([13]; 16 g ai/ha): 0 | Plant response rating, Wheat ([13]; 31 g ai/ha): 0 | Plant response rating, Wheat ([13]; 62 g ai/ha): 0 | Plant response rating, Wheat ([13]; 125 g ai/ha): 40 | Plant response rating, Foxtail, Green ([14]; 16 g ai/ha): 70 | Plant response rating, Foxtail, Green ([14]; 31 g ai/ha): 85 | Plant response rating, Foxtail, Green ([14]; 62 g ai/ha): 98 | Plant response rating, Foxtail, Green ([14]; 125 g ai/ha): 98 | Plant response rating, Corn ([15]; 125 g ai/ha): 0 | Plant response rating, Corn ([15]; 500 g ai/ha): 60 | Plant response rating, Goosegrass ([16]; 16 g ai/ha): 98 | Plant response rating, Goosegrass ([16]; 31 g ai/ha): 98 | Plant response rating, Goosegrass ([16]; 62 g ai/ha): 100 | Plant response rating, Goosegrass ([16]; 125 g ai/ha): 100 | Plant response rating, Foxtail, Giant ([17]; 125 g ai/ha): 70 | Plant response rating, Foxtail, Giant ([17]; 500 g ai/ha): 90 | Plant response rating, Galium ([18]; 16 g ai/ha): 0 | Plant response rating, Galium ([18]; 31 g ai/ha): 0 | Plant response rating, Galium ([18]; 62 g ai/ha): 100 | Plant response rating, Galium ([18]; 125 g ai/ha): 100 | Plant response rating, Morningglory ([19]; 125 g ai/ha): 60 | Plant response rating, Morningglory ([19]; 500 g ai/ha): 90 | Plant response rating, Cocklebur ([20]; 16 g ai/ha): 0 | Plant response rating, Cocklebur ([20]; 31 g ai/ha): 0 | Plant response rating, Cocklebur ([20]; 62 g ai/ha): 0 | Plant response rating, Cocklebur ([20]; 125 g ai/ha): 0 | Plant response rating, Nutsedge, Yellow ([21]; 16 g ai/ha): 0 | Plant response rating, Nutsedge, Yellow ([21]; 31 g ai/ha): 20 | Plant response rating, Nutsedge, Yellow ([21]; 62 g ai/ha): 60 | Plant response rating, Nutsedge, Yellow ([21]; 125 g ai/ha): 80
